From patent US20210138039A1, “PAIN RESPONSE MEDIATOR COMPOSITIONS AND METHODS FOR MAKING AND USING SAME” (Q-STATE BIOSCIENCES, INC., priority 2017, published 2021)
No end group written: not given here.

Columns and labels:
rats = settings: injected in rats; cited from earlier work
humans = settings: injection in humans; cited from earlier work
animal models = settings: subcutaneous injection; cited from earlier work
mouse DRG neurons = assay type: cell-based
[1] = tested on: iPS cell-derived sensory neurons; assay type: cell-based, human
Cultured DRG neurons = test: Firing phenotypes of cultured DRG neurons; assay type: cell-based, rodent
[2] = tested on: E18 rat hippocampal neurons; test: High-throughput fluorescent voltage recording, 96-well plate (FIGS. 30-34); assay type: cell-based; settings: 1 μM; neurons cultured for 14 days; blue light stimulus
Description: FIGS. 30-34 show high-throughput validation for screening. E18 rat hippocampal neurons cultured for 14 days.
The blue light stimulus is shown below.
FIG. 31 is a raster plot showing spikes from columns of wells.
Vehicle wells (even columns, green) and ML213 wells (odd columns, red) are easily distinguished. Even numbered columns are all green; odd numbered columns are all read.

## IL-6: an inflammatory cytokine found to be elevated around tumors
rats
  pain on injection: causes local pain

## Nc1ncnc2c1ncn2[C@@H]1O[C@H](COP(=O)(O)OP(=O)(O)OP(=O)(O)O)[C@@H](O)[C@H]1O [ATP, adenosine triphosphate]
humans
  pain sensitivity on injection: increased pain sensitivity

## endothelin 1 (CSCSSLMDKECVYFCHLDIIW; ends and bridges not checked; cysteine pairing not given here; UniProt P05305 53-73, looked up) [ET-1]
Animal models
  sensitization (paw withdrawal threshold): local sensitization

## NC1=N[C@H](O)[C@H]2[C@H]3O[C@]4(O)O[C@@H]([C@@H](O)[C@@]2(N1)[C@@H]4O)[C@]3(O)CO [TTX, tetrodotoxin]
Mouse DRG neurons
  after-hyperpolarization depth: decreases
  effect on the pain mediator composition-induced firing: blocks the effect of the pain mediator composition
  spike width: increases
[1]
  spiking in response to the blue stimulus: almost all spiking is blocked

## COc1cc(CNC(=O)CCCC/C=C/C(C)C)ccc1O [capsaicin]
Cultured DRG neurons
  firing phenotype in response to capsaicin: acute response

## Cc1cc(C)c(NC(=O)C2CC3CCC2C3)c(C)c1 (stereo not shown) [ML213]
[2]
  firing rate: dramatically reduces firing rate in all wells tested

## TNF-a
rats
  pain on injection: cause pain
